Measured values reported in patent US11834401B2, “Treating and preventing diseases by modulating cell mechanics” (THE JOHNS HOPKINS UNIVERSITY, priority 2013, dated 2023).

Key:
[1] = system: NLS-tdTomato expressing Dictyostelium cells; settings: for CIMPAQ hit category, kinase inhibitor collection / CIMPAQ hit category, ion channel collection: BIOMOL pilot screen; for CIMPAQ hit category, kinase inhibitor collection: 84 protein kinase inhibitors; for CIMPAQ hit category, ion channel collection: 70 ion channel inhibitors
Method: NLS-tdTomato expressing Dictyostelium cells were challenged with […] compounds from the ChemBridge Divert-SET library and imaged over three days. Raw data was segmented by CIMPAQ, a designed analytical platform, which rank ordered hits based on their cytokinesis or mitotic inhibitory activity, or lethality. Hits were confirmed through a dose-dependent secondary screening.
Ax3::NLS-tdTomato cells were plated on 384-well COP plates with a MicroFloSelect microplate dispenser (BioTek, Winooski, Vt.) at volumes of 80 μl with a cell concentration of 1000 cells/ml for the 24- and 48-hr time points and at the same volume with a cell concentration of 220 cells/ml for the 72-hr time point. Each plate contained four rows of untreated cells with 0.2% DMSO. For the remaining wells, […] of each small molecule maintained at the Johns Hopkins ChemCORE facility, was added, with a final DMSO concentration of 0.2%. Almost half of the ChemBridge Divert-SET library, which is a 50,000 compound chemical diversity library, was screened over a three-day period on a Becton Dickinson Pathway 855 Bioimager System using a 20× objective (NA 0.75). Each image consisted of a montage of four images collected around the center of the well, resulting in a total size of 1344×1024 pixels per image.
Secondary chemical screening was carried out in quadruplicate, with identical culturing conditions as to the primary screen. 14 mM stocks of each compounds dissolved in 100% DMSO were diluted to the following final concentrations: […], 3.5 nM, 35 nM, 350 nM, 3.5 μM, and 35 μM.
Raw image files from both the primary and secondary screening were processed through CIMPAQ (FIGS. 9E and 9F). The single wavelength fluorescence images were converted from 16-bit format to 8-bit format. The MATLAB Image Processing Toolbox was utilized to segment the images in order to identify the nuclei and cytoplasm. The number of nuclei within each segmented cell was quantified to produce a histogram of nuclei per cell for each image (FIG. 9G). All segmented cells that were coincident with the image edge were disregarded.
Image analysis using CIMPAQ: From the histogram of nuclei per cell count, the ratio of the number of multinucleate cells to the number of mononucleate cells and the ratio of the number of binucleate cells to the number of mononucleate cells were computed. Multinucleate cells are defined as cells that contain >2 nuclei. The distribution of both ratios across multiple wells were simultaneously visualized using a scatter plot, with the ratio of multinucleate cells to mononucleate cells plotted on the x-axis and the ratio of binucleate cells to mononucleate cells plotted on the y-axis (FIGS. 9H and 9I). Other information such as the average number of nuclei per cell, the mean nuclear area, and the normalized histogram with respect to total cell number were also computed.
Hit identification using CIMPAQ: Compounds that generate an increase in the number of multinucleate (>2 nuclei/cell) cells are considered cytokinesis inhibitors. Because nearly all cultured cells, including Dictyostelium, have a low background (typically <5% for WT) of non-mononucleate cells, CIMPAQ spreads the data for each sample by determining the ratio (bi:mono) of binucleate (2 nuclei/cell) to mononucleate cells and the ratio (multi:mono) of multinucleate (>2 nuclei/cell) to mononucleate cells. These two ratios then define a set of Cartesian coordinates, describing the effect of each compound on a given cell-line. The coordinates for each compound are plotted on a two-dimensional graph. CIMPAQ fits the control data to a two-dimensional Gaussian distribution (FIG. 9H) and determines the contour lines for two standard deviations (2SD), 3SD, etc. from the control mean (FIG. 9I).
Hit compounds are rank-ordered based on how many SDs away they are from the untreated wells.

[2] = biological target: EGF receptor tyrosine kinase (Homo sapiens, UniProt P00533); settings: cited from earlier work
EGF receptor tyrosine kinase, sequence (P00533 25-1210): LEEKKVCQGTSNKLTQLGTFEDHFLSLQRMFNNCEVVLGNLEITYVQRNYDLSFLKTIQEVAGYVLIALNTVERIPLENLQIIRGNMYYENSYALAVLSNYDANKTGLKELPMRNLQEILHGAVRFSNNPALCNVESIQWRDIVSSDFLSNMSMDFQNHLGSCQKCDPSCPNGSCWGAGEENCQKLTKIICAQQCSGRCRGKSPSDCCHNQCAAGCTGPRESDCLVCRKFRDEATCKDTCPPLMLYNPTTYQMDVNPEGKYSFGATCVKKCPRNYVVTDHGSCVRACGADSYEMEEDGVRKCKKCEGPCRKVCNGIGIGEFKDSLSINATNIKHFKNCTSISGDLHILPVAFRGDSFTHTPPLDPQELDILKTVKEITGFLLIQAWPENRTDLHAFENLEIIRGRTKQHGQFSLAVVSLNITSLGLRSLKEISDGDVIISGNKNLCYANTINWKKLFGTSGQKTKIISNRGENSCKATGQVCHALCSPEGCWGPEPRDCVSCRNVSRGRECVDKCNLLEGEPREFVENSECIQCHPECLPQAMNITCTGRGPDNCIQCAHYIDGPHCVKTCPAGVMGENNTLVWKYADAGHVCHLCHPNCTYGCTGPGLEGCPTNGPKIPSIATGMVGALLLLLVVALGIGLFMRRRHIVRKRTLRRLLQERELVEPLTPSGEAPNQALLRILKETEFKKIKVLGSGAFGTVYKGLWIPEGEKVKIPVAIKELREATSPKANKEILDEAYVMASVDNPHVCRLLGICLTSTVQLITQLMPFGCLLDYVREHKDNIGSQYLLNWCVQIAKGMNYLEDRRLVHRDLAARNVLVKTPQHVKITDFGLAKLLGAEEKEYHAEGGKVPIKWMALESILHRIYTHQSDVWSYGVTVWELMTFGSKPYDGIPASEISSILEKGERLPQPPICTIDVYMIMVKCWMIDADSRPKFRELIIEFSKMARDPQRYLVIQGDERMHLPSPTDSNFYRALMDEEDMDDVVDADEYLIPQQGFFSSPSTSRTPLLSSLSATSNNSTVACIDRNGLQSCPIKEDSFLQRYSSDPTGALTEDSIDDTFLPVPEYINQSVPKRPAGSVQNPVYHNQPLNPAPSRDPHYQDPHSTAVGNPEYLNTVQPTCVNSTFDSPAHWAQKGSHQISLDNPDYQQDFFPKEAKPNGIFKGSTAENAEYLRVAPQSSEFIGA

Dictyostelium cells = test: Micropipette aspiration cortical tension, Dictyostelium; type: cell-based, Dictyostelium discoideum; settings: acute treatment; 700 μM printed
Method: (§1) Micropipette aspiration was used for cortical tension and creep response measurements. Confocal imaging was performed on a Zeiss 510 Meta with a 63× (numerical aperture [NA] 1.4) objective (Carl Zeiss, Jena, Germany). Epifluorescence and TIRF imaging was performed in a 22° C. temperature controlled room with an Olympus IX81 microscope using a 40× (NA 1.3) or 60× (NA 1.49) objective and a 1.4× optovar (Olympus, Center Valley, Pa.), as previously described. Image analysis was performed with ImageJ (rsb.info.nih.gov/ij).
The instrumental and experimental setups have been previously described (Effler J C, et al., 2006; Kee Y-S, et al., 2013). Micropipette aspiration assays were all carried out in growth media with 0.1% DMSO. For cortical tension measurements of Dictyostelium cells, pressure was applied to the cell cortex with a micropipette (2-3 m radius, Rp) to the equilibrium pressure (ΔP) where the length of the cell inside the pipette (Lp) was equal to Rp. The effective cortical tension (Teff) was calculated by applying the Young-Laplace equation: ΔP=2Teff(1/Rp-1/Rc), where Rc is the radius of the cell and ΔP is the equilibrium pressure when Lp=Rp (Derganc J, et al., 2000; Octtaviani E, et al., 2006). For creep tests on mammalian strains, a constant aspiration stress was applied over 60 s. The micropipette radius was 3.5-4.5 m. For quantification, the Lp/Rp ratio values was measured every two seconds and plotted as a function of time. A10.7 and HEK293 cells could only be aspirated at a low pressure range (0.15 nN/μm^2), while HPDE, ASPC-1, and HL-60 cells could be aspirated at higher pressure ranges (0.25 nN/μm^2) because they were stiffer.

[3] = Degradation/stability of carbamate-7 in solvent (TLC, HPLC); type: physicochemical; settings: standing in methanol
Method: Upon standing in methanol, the product obtained above degraded within 2.5 hr, as determined by TLC analysis. Degradation appeared more rapid in DMSO, the solvent used to generate stock solutions for biological evaluation. Thus, carbamate-7 obtained either by chemical synthesis or commercially from ChemBridge was dissolved in DMSO (1 mg/mL), and a time course to study its degradation was initiated immediately upon solvation. To stop the degradation reaction such that the product distribution could be captured at early time points, aliquots (40 μL) were rapidly frozen into Eppendorf tubes incubating on dry ice. HPLC analysis on a Beckman Gold Nouveau HPLC System was performed on each sample immediately upon thawing. Carbamate-7 (5180622) degradation products were eluted at 3 mL/min from a Grace Alltima C18 column (length=53 mm, ID=7 mm, particle size=3 μM) over a linear gradient (5:95 acetonitrile/100 mM NH4OAc (pH 6.8) to 100% 100 mM NH4OAc (pH 6.8) over 15 min).
Comparison of the urea product to authentic N,N′-Bis(3,4-dichlorophenyl) urea was performed using a linear gradient (5:95 acetonitrile/100 mM NH4OAc (pH 6.8) to 100% 100 mM NH4OAc (pH 6.8) over 5 min). […] Confirmation of the urea was further confirmed via characteristic fragmentation patterns determined using product ion (MS-MS) analysis monitoring in negative ion mode (FIG. 11C).

myosin II = biological target: T1, myosin II (Dictyostelium discoideum, UniProt P08799); test: Myosin II cortical localization by SIM, TIRF and confocal imaging; type: cell-based; settings: 500 nM time course
T1 construct: expressed in transfected cells; host or cells: Dictyostelium discoideum myoII null cells rescued with GFP-myosin II
T1 sequence (P08799 whole entry): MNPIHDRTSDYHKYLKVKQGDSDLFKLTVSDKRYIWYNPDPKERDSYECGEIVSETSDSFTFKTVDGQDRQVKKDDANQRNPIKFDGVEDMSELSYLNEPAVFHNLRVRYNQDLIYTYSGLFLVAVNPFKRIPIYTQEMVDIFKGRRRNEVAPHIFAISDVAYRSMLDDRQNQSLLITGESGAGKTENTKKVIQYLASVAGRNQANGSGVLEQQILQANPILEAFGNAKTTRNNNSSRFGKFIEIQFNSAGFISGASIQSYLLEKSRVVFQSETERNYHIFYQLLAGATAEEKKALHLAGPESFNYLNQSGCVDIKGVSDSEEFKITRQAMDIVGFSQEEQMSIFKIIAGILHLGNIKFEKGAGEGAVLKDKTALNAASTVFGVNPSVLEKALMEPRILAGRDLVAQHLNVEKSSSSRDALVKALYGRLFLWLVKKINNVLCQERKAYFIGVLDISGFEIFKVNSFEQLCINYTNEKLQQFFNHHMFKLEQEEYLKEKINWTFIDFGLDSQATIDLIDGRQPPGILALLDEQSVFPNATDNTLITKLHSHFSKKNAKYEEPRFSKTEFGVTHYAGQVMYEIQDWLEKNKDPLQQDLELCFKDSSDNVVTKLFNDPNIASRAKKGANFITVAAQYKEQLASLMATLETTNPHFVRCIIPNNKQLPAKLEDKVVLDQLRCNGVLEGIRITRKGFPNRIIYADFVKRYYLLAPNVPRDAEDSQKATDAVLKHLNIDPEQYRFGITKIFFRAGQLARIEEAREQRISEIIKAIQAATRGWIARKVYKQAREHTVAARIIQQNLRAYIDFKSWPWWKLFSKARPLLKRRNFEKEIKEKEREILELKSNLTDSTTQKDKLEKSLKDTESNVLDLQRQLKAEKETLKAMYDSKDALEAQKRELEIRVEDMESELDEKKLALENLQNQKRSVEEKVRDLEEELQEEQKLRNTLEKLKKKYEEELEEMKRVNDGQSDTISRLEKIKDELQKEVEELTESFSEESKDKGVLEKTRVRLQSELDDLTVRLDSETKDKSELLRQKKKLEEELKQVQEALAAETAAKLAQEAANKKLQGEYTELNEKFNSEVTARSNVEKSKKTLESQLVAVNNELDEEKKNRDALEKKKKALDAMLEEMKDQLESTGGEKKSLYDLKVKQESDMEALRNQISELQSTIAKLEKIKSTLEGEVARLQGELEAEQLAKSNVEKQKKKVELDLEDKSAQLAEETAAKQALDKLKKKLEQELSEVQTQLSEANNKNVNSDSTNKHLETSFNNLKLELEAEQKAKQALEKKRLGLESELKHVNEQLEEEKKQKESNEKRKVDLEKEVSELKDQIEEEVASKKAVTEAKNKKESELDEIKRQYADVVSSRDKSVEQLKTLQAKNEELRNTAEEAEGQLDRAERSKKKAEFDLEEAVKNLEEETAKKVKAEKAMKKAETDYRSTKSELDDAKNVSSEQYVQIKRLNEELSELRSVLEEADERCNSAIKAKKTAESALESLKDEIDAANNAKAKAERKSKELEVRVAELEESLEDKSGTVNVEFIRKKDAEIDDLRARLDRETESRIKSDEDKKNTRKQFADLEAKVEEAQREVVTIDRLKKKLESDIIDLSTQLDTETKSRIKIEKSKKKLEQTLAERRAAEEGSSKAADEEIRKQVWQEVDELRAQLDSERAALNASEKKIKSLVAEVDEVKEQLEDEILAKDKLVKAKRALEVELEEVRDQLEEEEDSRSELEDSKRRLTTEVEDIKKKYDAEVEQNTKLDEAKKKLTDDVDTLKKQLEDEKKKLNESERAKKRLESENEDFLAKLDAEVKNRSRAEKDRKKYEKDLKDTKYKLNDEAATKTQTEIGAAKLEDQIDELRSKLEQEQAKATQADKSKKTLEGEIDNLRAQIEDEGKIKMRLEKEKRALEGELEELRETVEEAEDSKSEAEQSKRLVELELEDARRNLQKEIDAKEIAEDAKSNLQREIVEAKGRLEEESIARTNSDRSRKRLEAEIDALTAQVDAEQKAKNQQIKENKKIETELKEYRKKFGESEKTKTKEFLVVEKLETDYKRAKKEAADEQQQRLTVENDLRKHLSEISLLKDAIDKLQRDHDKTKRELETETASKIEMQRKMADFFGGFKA
Method: as §1
Imaging conditions during primary screen are described above. All other image analysis was performed as previously described (Kee Y S, et al., 2012). Cells were transferred from Petri dishes (with 0.1% DMSO incubation in growth media of 4 hrs) to imaging chambers and allowed to adhere for 20 min in growth media with 0.1% DMSO. After the cells adhered, the growth media was replaced with 2-(N-morpholino)ethanesulfonic acid (MES) starvation buffer (50 mM MES, pH 6.8, 2 mM MgCl2, 0.2 mM CaCl2) with 0.1% DMS. Confocal imaging was performed on aZeiss 510 Meta with a 63× (numerical aperture [NA] 1.4) objective (Carl Zeiss, Jena, Germany). Epifluorescence and TIR imaging was performed in a 22° C. temperature controlled room with an Olympus IX81 microscope using a 40× (NA 1.3) or 60× (NA […]) objective and a 1.4× optovar (Olympus, Center Valley, Pa.), as previously described. Image analysis was performed with ImageJ (rsb.info.nih.gov/ij). Many data sets were independently analyzed by multiple investigators.

CCCCCCCCCCCCCCCC(=O)OC(CC(=O)O)C[N+](C)(C)C.[Cl-] (racemic) [Palmitoyl-DL-carnitine Cl]
CIMPAQ hit category, kinase inhibitor collection [1]: Lethal at 10 μM

O=C(O)c1cc(NCc2cc(O)ccc2O)ccc1O [2-Hydroxy-5-(2,5-dihydroxybenzylamino) benzoic acid]
CIMPAQ hit category, kinase inhibitor collection [1]: Lethal at 10 μM

C/C(CCc1ccccc1)=N\Nc1ccc([N+](=O)[O-])cc1 [4-phenyl-2-butanone (4-nitrophenyl) hydrazone]
cell division ([1]; Dictyostelium Drug Discovery Platform (3DP)): inhibit cell division

N#CC(=Cc1ccc2[nH]ccc2c1)C(N)=C(C#N)C#N [AG-370]
CIMPAQ hit category, kinase inhibitor collection [1]: Lethal at 5 μM

CNc1ccc2oc(C[C@H]3O[C@@]4(CC[C@H]3C)O[C@H]([C@H](C)C(=O)c3ccc[nH]3)[C@H](C)C[C@H]4C)nc2c1C(=O)O [Antibiotic A-23187]
CIMPAQ hit category, ion channel collection [1]: Lethal at 5 μM

CC(C)COCC(CN(Cc1ccccc1)c1ccccc1)N1CCCC1 (stereo not drawn) [Bepridil]
CIMPAQ hit category, ion channel collection [1]: Lethal at 5 μM

COC(=O)/C=C/c1cc(O)ccc1O [Erbstatin analog]
known IC50 [2]: inhibitor; known IC50 (0.5 μg/ml

COc1cccc(-c2cc(=O)c3ccccc3o2)c1N [PD-98059]
CIMPAQ hit category, kinase inhibitor collection [1]: Lethal at 5 μM

Cc1ccc(-c2nn(C(C)(C)C)c3ncnc(N)c23)cc1 [PP1]
CIMPAQ hit category, kinase inhibitor collection [1]: Lethal at 5 μM

COc1ccc(CCCOC(Cn2ccnc2)c2ccc(OC)cc2)cc1 (stereo not drawn) [SKF-96365]
CIMPAQ hit category, ion channel collection [1]: Lethal at 5 μM

CC(C)(C)c1cc(C=C(C#N)C#N)cc(C(C)(C)C)c1O [Tyrphostin 9]
CIMPAQ hit category, kinase inhibitor collection [1]: Lethal at 5 μM

CC(=O)c1ccc(OC(=O)Nc2ccc(Cl)c(Cl)c2)cc1 [carbamate-7, 4-acetylphenyl-(3,4-dichlorophenyl) carbamate]
increase in cortical tension (Dictyostelium cells): 1.4 fold | time to degradation [3]: ≤ 2.5 h

COC(=O)Nc1nc2ccc(C(=O)c3cccs3)cc2[nH]1 [nocodazole]
identification as early mitotic inhibitor (average nuclear area greater than 28 pixels) [1]: reliably identified

O=C(Nc1ccc(Cl)c(Cl)c1)Nc1ccc(Cl)c(Cl)c1 [urea, N,N′-bis(3,4-dichlorophenyl)urea]
changes in myosin II cortical distribution (TIRF) (myosin II): Neither 3,4-DCA nor the urea result in changes in myosin II cortical distribution
